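Assay format: 96-well plates, 48-hour exposure. Abbreviation: GI50, concentration required for 50% inhibition of growth. Definition used: TGI = concentration required for complete inhibition of growth.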
Assays:
Assay in all cases: NCI-60 cell line screen, 48 h
[1] = tested on: OVCAR-8 ovarian
[2] = tested on: SK-MEL-2 melanoma
[3] = tested on: CAKI-1 renal
[4] = tested on: M14 melanoma
[5] = tested on: UACC-257 melanoma
[6] = tested on: T-47D breast
[7] = tested on: A549 NSCLC
[8] = tested on: NCI-H460 lung
[9] = tested on: SF-295 CNS
[10] = tested on: SN12C renal
[11] = tested on: MDA-MB-231 breast
[12] = tested on: NCI/ADR-RES ovarian
[13] = tested on: MCF7 breast
[14] = tested on: MDA-MB-435
[15] = tested on: HCT-116 colon
[16] = tested on: UACC-62 melanoma
[17] = tested on: HOP-62 NSCLC
[18] = tested on: NCI-H226 lung
[19] = tested on: HCC-2998 colon
[20] = tested on: SK-OV-3 ovarian
[21] = tested on: SF-268 CNS
[22] = tested on: HT29 colon
[23] = tested on: BT-549 breast
[24] = tested on: LOX IMVI melanoma
[25] = tested on: HCT-15 colon
[26] = tested on: TK-10 renal
[27] = tested on: A498 renal
[28] = tested on: SW-620 colon
[29] = tested on: HOP-92 NSCLC
[30] = tested on: SK-MEL-28 melanoma
[31] = tested on: NCI-H23 lung
[32] = tested on: SF-539 CNS
[33] = tested on: OVCAR-4 ovarian
[34] = tested on: UO-31 renal
[35] = tested on: EKVX NSCLC
[36] = tested on: MALME-3M melanoma
[37] = tested on: NCI-H522 lung
[38] = tested on: ACHN renal
[39] = tested on: OVCAR-5 ovarian
[40] = tested on: OVCAR-3 ovarian
[41] = tested on: HS 578T breast
[42] = tested on: SK-MEL-5 melanoma
[43] = tested on: DU-145 prostate
[44] = tested on: 786-0 renal
[45] = tested on: COLO 205 colon
[46] = tested on: PC-3 prostate
[47] = tested on: RPMI-8226 leukemia
[48] = tested on: CCRF-CEM leukemia
[49] = tested on: U251 CNS
[50] = tested on: K-562 leukemia
[51] = tested on: RXF 393 renal
[52] = tested on: HL-60(TB) leukemia
[53] = tested on: SR leukemia
[54] = tested on: MOLT-4 leukemia
[55] = tested on: SNB-75 CNS
[56] = tested on: IGROV1 ovarian
[57] = tested on: KM12 colon

CCCCCCCCCCCCCCCCCCOc1ccccc1CC(=O)NCC[N+]1(C)CCOCC1 showed a GI50 [1] of 5.56 µM, a TGI [1] of 29.9 µM and a GI50 [2] of 13.9 µM. For the same compound, the TGI [2] was 34.6 µM, the GI50 [3] was 18.4 µM and the TGI [3] was 38.3 µM. For the same compound, the GI50 [4] was 4.32 µM, the TGI [4] was > 100 µM and the GI50 [5] was 18.9 µM. The TGI [5] was 35.3 µM, the GI50 [6] was 6.85 µM and the TGI [6] was 39.2 µM. It also gave a GI50 [7] of 4.39 µM, a TGI [7] of 26.3 µM and a GI50 [8] of 3.31 µM. It also gave a TGI [8] of 17.4 µM, a GI50 [9] of 4.99 µM and a TGI [9] of 49.2 µM. The GI50 [10] was 2.26 µM, the TGI [10] was 6.21 µM and the GI50 [11] was 2.76 µM. For the same compound, the TGI [11] was 8.34 µM, the GI50 [12] was 18.3 µM and the TGI [12] was 56.8 µM. For the same compound, the GI50 [13] was 2.71 µM, the TGI [13] was 9.34 µM and the GI50 [14] was 7.85 µM. For the same compound, the TGI [14] was 32.9 µM, the GI50 [15] was 4.71 µM and the TGI [15] was > 100 µM. For the same compound, the GI50 [16] was 4.31 µM, the TGI [16] was 30.7 µM and the GI50 [17] was 4.01 µM. For the same compound, the TGI [17] was 26.8 µM, the GI50 [18] was 4.9 µM and the TGI [18] was 89 µM. It also gave a GI50 [19] of 2.08 µM, a TGI [19] of 7.09 µM and a GI50 [20] of 13.9 µM. The TGI [20] was 32.4 µM, the GI50 [21] was 2.77 µM and the TGI [21] was 31.2 µM. For the same compound, the GI50 [22] was 2.05 µM, the TGI [22] was 5.19 µM and the GI50 [23] was 3.57 µM. For the same compound, the TGI [23] was 74 µM, the GI50 [24] was 3.51 µM and the TGI [24] was 42.4 µM. For the same compound, the GI50 [25] was 17.1 µM, the TGI [25] was 66.5 µM and the GI50 [26] was 1.9 µM. It also gave a TGI [26] of 5.9 µM, a GI50 [27] of 13.4 µM and a TGI [27] of 44 µM. It also gave a GI50 [28] of 3.76 µM, a TGI [28] of 22.5 µM and a GI50 [29] of 1.03 µM. It also gave a TGI [29] of 3.78 µM, a GI50 [30] of 7.69 µM and a TGI [30] of 49.8 µM. For the same compound, the GI50 [31] was 3.03 µM, the TGI [31] was 14.2 µM and the GI50 [32] was 3.35 µM. It also gave a TGI [32] of 12.8 µM, a GI50 [33] of 6.42 µM and a TGI [33] of 23.3 µM. For the same compound, the GI50 [34] was 5.83 µM, the TGI [34] was 37.2 µM and the GI50 [35] was 8.62 µM. The TGI [35] was 56.2 µM, the GI50 [36] was 4.48 µM and the TGI [36] was > 100 µM. For the same compound, the GI50 [37] was 1.95 µM, the TGI [37] was 5.05 µM and the GI50 [38] was 16 µM. The TGI [38] was 44.6 µM, the GI50 [39] was 1.89 µM and the TGI [39] was 4.85 µM. The GI50 [40] was 4.43 µM, the TGI [40] was 34.2 µM and the GI50 [41] was 2.38 µM. It also gave a TGI [41] of 9.56 µM, a GI50 [42] of 3 µM and a TGI [42] of 16.1 µM.

C#CC[C@@H]1C[C@]2(C)[C@H]3CC[C@@H]4[C@H]5C(C(=C)C)CC[C@]5(C(=O)NCCN(CCN)CCN)CC[C@@]4(C)[C@]3(C)CC[C@H]2C(C)(C)[C@H]1OC(C)=O (stereo not given in full) was tested, and the GI50 [18] was 2.06 µM, the TGI [18] was 4.69 µM and the GI50 [33] was 2.35 µM. For the same compound, the TGI [33] was 5.32 µM.

COc1ccc2sc3c(NCCCN)nc4ccccc4c3c(=O)c2c1 gave a GI50 [2] of 2 µM, a TGI [2] of 3.98 µM and a GI50 [43] of 1.81 µM. For the same compound, the TGI [43] was 3.31 µM, the GI50 [3] was 1.6 µM and the TGI [3] was 3.06 µM. For the same compound, the GI50 [4] was 1.74 µM, the TGI [4] was 3.18 µM and the GI50 [5] was 1.91 µM. The TGI [5] was 3.88 µM, the GI50 [44] was 1.63 µM and the TGI [44] was 3.11 µM. The GI50 [6] was 1.74 µM, the TGI [6] was 3.65 µM and the GI50 [7] was 1.64 µM. The TGI [7] was 3.39 µM, the GI50 [8] was 1.86 µM and the TGI [8] was 3.55 µM. The GI50 [9] was 1.79 µM, the TGI [9] was 3.36 µM and the GI50 [10] was 1.63 µM. It also gave a TGI [10] of 3.11 µM, a GI50 [11] of 1.52 µM and a TGI [11] of 3 µM. It also gave a GI50 [13] of 1.7 µM, a TGI [13] of 3.48 µM and a GI50 [14] of 1.74 µM. The TGI [14] was 3.21 µM, the GI50 [15] was 1.5 µM and the TGI [15] was 2.85 µM. The GI50 [45] was 1.8 µM, the TGI [45] was 3.71 µM and the GI50 [16] was 1.72 µM. For the same compound, the TGI [16] was 3.21 µM, the GI50 [17] was 1.7 µM and the TGI [17] was 3.46 µM. The GI50 [18] was 1.84 µM, the TGI [18] was 3.84 µM and the GI50 [19] was 1.66 µM. For the same compound, the TGI [19] was 3.34 µM, the GI50 [20] was 1.61 µM and the TGI [20] was 3.66 µM. It also gave a GI50 [46] of 1.5 µM, a TGI [46] of 3.05 µM and a GI50 [21] of 1.66 µM. The TGI [21] was 3.44 µM, the GI50 [47] was 1.85 µM and the TGI [47] was 3.89 µM. The GI50 [23] was 1.69 µM, the TGI [23] was 3.55 µM and the GI50 [25] was 1.54 µM. For the same compound, the TGI [25] was 3.05 µM, the GI50 [48] was 1.79 µM and the TGI [48] was 3.66 µM. The GI50 [49] was 1.62 µM, the TGI [49] was 3.19 µM and the GI50 [27] was 1.52 µM. It also gave a TGI [27] of 5.59 µM, a GI50 [28] of 1.76 µM and a TGI [28] of 3.44 µM. The GI50 [29] was 1.36 µM, the TGI [29] was 3.39 µM and the GI50 [50] was 1.11 µM. The TGI [50] was 3.4 µM, the GI50 [51] was 1.5 µM and the TGI [51] was 2.9 µM. It also gave a GI50 [52] of 1.89 µM, a TGI [52] of 3.63 µM and a GI50 [53] of 0.832 µM. For the same compound, the TGI [53] was 3.22 µM, the GI50 [54] was 1.48 µM and the TGI [54] was 3.17 µM. It also gave a GI50 [30] of 1.8 µM, a TGI [30] of 3.28 µM and a GI50 [31] of 1.76 µM. For the same compound, the TGI [31] was 3.43 µM, the GI50 [32] was 1.75 µM and the TGI [32] was 3.17 µM. The GI50 [33] was 1.86 µM, the TGI [33] was 3.56 µM and the GI50 [34] was 1.43 µM. The TGI [34] was 2.82 µM, the GI50 [35] was 1.75 µM and the TGI [35] was 3.39 µM. For the same compound, the GI50 [36] was 1.78 µM, the TGI [36] was 3.32 µM and the GI50 [37] was 1.63 µM. For the same compound, the TGI [37] was 3.49 µM, the GI50 [55] was 1.38 µM and the TGI [55] was 2.72 µM. It also gave a GI50 [38] of 1.69 µM, a TGI [38] of 3.07 µM and a GI50 [56] of 1.67 µM. For the same compound, the TGI [56] was 3.19 µM, the GI50 [39] was 1.68 µM and the TGI [39] was 3.28 µM. The GI50 [40] was 1.77 µM, the TGI [40] was 3.32 µM and the GI50 [42] was 1.82 µM. The TGI [42] was 3.37 µM, the GI50 [57] was 1.82 µM and the TGI [57] was 3.36 µM.
